In ChEMBL document CHEMBL1132204, “Design and synthesis of phosphinamide-based hydroxamic acids as inhibitors of matrix metalloproteinases” (J Med Chem, 1999):

Tests used:
[1] = target: Stromelysin-1 (Homo sapiens, UniProt P08254); experiment: Inhibition of human matrix metalloprotease-3
[2] = target: T1, Interstitial collagenase (Homo sapiens, UniProt P03956); experiment: Inhibition of human matrix metalloprotease 1
T1 sequence (P03956 whole entry): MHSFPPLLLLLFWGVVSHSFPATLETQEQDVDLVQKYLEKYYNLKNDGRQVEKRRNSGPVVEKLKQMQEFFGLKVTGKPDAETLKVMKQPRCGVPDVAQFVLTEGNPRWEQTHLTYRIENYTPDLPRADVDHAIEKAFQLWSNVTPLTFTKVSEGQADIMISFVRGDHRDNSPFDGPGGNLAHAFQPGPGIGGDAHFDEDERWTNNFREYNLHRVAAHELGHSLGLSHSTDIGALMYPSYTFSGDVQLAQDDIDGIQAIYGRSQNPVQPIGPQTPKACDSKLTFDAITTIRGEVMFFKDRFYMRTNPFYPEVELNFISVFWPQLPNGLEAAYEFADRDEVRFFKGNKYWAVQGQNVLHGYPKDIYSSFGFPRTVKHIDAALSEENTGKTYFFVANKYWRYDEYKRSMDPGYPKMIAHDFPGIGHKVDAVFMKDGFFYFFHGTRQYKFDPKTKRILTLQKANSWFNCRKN

[3] = target: 72 kDa type IV collagenase (Homo sapiens, UniProt P08253); experiment: Inhibition of human matrix metalloprotease 2
Sequence of 72 kDa type IV collagenase (P08253 whole entry): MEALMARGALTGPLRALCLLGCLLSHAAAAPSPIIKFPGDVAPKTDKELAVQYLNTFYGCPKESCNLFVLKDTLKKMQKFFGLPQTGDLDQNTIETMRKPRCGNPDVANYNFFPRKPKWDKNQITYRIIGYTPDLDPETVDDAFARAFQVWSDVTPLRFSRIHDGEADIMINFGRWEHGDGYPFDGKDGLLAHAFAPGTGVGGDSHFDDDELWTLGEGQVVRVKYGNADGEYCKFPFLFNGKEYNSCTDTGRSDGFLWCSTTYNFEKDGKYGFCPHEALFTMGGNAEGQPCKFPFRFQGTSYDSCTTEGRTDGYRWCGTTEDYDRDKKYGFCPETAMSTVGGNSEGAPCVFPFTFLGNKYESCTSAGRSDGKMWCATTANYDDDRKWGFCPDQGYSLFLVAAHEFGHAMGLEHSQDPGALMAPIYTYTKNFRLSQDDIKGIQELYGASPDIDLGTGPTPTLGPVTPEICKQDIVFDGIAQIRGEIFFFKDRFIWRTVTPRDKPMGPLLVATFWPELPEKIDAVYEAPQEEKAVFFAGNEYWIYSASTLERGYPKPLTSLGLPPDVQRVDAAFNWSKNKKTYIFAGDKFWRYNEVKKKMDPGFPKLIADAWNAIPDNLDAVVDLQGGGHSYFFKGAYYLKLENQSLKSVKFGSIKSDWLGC

[4] = target: Matrix metalloproteinase-9 (Homo sapiens, UniProt P14780); experiment: Inhibition of human matrix metalloprotease 9
Sequence of Matrix metalloproteinase-9 (P14780 whole entry): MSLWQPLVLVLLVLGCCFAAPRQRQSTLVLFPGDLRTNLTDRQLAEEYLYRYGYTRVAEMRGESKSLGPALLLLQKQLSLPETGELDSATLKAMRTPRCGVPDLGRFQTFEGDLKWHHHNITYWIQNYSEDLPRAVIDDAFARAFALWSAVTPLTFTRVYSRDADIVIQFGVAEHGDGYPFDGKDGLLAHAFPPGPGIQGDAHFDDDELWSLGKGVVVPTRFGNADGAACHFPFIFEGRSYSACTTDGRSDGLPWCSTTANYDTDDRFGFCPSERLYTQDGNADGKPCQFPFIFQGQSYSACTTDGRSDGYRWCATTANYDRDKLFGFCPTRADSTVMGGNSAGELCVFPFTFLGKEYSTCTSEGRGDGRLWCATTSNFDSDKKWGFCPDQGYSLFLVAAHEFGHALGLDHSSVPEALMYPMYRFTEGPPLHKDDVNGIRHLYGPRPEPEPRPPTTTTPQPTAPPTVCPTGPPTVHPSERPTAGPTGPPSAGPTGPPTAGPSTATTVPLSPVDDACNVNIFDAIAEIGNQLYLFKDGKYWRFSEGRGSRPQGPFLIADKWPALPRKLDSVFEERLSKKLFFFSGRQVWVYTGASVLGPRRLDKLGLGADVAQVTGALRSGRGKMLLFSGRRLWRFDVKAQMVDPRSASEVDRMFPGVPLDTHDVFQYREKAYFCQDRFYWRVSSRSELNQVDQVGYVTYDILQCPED

[5] = target: T2, Matrilysin (Homo sapiens, UniProt P09237); experiment: Inhibition of human matrix metalloprotease 7
T2 sequence (P09237 whole entry): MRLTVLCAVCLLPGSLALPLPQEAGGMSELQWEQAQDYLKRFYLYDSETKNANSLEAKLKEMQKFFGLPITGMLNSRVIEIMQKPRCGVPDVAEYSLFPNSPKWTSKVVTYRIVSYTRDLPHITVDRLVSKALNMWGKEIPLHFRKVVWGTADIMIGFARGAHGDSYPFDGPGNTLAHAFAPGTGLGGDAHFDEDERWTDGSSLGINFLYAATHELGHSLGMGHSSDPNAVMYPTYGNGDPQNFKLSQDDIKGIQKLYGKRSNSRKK

[6] = target: Neutrophil collagenase (Homo sapiens, UniProt P22894); experiment: Inhibition of human Matrix metalloprotease-8
Sequence of Neutrophil collagenase (P22894 whole entry): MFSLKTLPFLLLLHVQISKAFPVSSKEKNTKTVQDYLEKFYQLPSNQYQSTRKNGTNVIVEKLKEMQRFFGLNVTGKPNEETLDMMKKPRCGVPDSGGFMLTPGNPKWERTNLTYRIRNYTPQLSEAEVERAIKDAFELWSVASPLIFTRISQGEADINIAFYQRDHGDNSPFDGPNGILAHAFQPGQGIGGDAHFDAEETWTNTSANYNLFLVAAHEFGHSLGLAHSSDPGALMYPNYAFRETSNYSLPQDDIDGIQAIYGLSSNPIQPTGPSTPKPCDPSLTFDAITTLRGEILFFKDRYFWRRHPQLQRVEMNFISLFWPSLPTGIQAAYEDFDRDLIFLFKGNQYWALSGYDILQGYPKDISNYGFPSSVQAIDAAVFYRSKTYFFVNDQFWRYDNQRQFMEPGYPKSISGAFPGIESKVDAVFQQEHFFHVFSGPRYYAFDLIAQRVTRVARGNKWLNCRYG

[7] = target: Collagenase 3 (Rattus norvegicus, UniProt P23097)
Description: Inhibition of rat matrix metalloprotease 13

Sequence of Stromelysin-1 (P08254 whole entry): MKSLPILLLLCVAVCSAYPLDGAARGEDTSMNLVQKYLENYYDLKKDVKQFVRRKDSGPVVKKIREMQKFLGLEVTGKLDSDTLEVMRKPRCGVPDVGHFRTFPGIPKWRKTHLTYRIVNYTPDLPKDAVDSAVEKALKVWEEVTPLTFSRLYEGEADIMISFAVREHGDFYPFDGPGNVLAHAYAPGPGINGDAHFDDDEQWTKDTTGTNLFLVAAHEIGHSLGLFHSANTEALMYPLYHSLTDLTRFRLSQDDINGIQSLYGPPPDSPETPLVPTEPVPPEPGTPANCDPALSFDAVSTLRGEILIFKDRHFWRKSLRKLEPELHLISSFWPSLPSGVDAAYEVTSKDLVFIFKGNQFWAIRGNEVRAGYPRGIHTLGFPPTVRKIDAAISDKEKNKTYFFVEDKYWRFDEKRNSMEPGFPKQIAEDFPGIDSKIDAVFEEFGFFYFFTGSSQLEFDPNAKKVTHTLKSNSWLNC

SMILES | IC50 [1] [nM] | IC50 [2] [nM] | IC50 [3] [nM] | IC50 [4] [nM] | IC50 [5] [nM] | IC50 [6] [nM] | IC50 [7] [nM]
CCP(=O)(c1ccccc1)N(Cc1ccccc1)[C@H](C)C(=O)NO (stereo partly specified) | 700 | 608 |  |  |  |  | 
C[C@H](C(=O)NO)N(Cc1ccccc1)P(=O)(c1ccccc1)c1ccccc1 | 10300 | 6790 |  |  |  |  | 
O=C(CN(CCc1ccccc1)P(=O)(c1ccccc1)c1ccccc1)NO | 1750 | 854 |  |  |  |  | 
CCCCCCN([C@H](C)C(=O)NO)[P@](C)(=O)c1ccccc1 | 1600 | 1290 |  |  |  |  | 
CC(C)C[C@H](C(=O)NO)N(Cc1ccccc1)[P@](C)(=O)c1ccccc1 | 24.4 | 20.5 | 13.3 | 20.6 | 886 | 5.3 | 7.4
C[P@@](=O)(c1ccccc1)N(CCc1ccccc1)CC(=O)NO | 700 | 525 |  |  |  |  | 
C[C@H](C(=O)NO)N(Cc1ccccc1)[P@](C)(=O)c1ccccc1 | 67.9 | 120 |  | 32.5 | 1860 |  | 
CC(C)C[C@@H](N[P@@](C)(=O)c1ccccc1)C(=O)NO | 130000 | > 100000 |  |  |  |  | 
CC[P@@](=O)(c1ccccc1)N(Cc1ccccc1)[C@H](C)C(=O)NO | 49300 | 33300 |  |  |  |  | 
CC(C)C[C@H](C(=O)NO)N(Cc1ccccc1)P(C)(C)=O | 1040 | 518 |  |  |  |  | 
CC(C)C[C@@H](N[P@](C)(=O)c1ccccc1)C(=O)NO | 2550 | 2510 |  |  |  |  | 
CC(C)C[C@H](C(=O)NO)N(Cc1ccccc1)[P@@](C)(=O)c1ccccc1 | 9170 | 7120 |  |  |  |  | 
